The nature of data set [1]: Pharmacokinetics in the mouse, plasma and lung tissue. Format: in vivo. The following applies: oral gavage 10 mg/kg; for Lung AUC / Lung Cmax: mouse lung tissue; for Plasma AUC / Plasma Cmax: mouse plasma. The procedure:
The pharmacokinetics of compounds of formula (VIII) and compounds of formula (II) and (III) were measured in the mouse. Compounds were administered either intravenously (i.v.) at 1 mg/kg, or per oral gavage (p.o.) at 10 mg/kg. Plasma samples were taken and analyzed by LC/MS-MS. For lung tissue pharmacokinetics, lungs were removed and homogenized, followed by analyzis by LC/MS-MS.

In a further data set the test system is anesthetized rats. Briefly: Cardiovascular safety, QT interval in anesthetized rats, i.v. bolus. In kind it is in vivo, rat. The following applies: anesthetized rat, incremental i.v. bolus doses 0.47 to 15 mg/kg. The procedure: (§1) Total doses of drug (0.47, 0.94, 1.88, 3.75, 7.5, and 15 mg/kg) or equivalent volumes of vehicle were administered incrementally as an i.v. bolus to groups of 6 anesthetized rats or guinea pigs at 0, 15, 30, 45, 60, and 75 minutes. Hemodynamic parameters including mean arterial pressure (MAP) and heart rate (HR), and ECG parameters (QT and PR intervals and QRS duration) were recorded. For the rat, injection of vehicle gave a 16% increase in QT interval over baseline. For the guinea pig, injection of vehicle gave a 3% increase in QT interval over baseline.

For a further data set, the system named is anesthetized guinea pigs. Briefly: Cardiovascular safety, QTc interval in anesthetized guinea pigs, i.v. bolus. In kind it is in vivo, guinea pig. To be noted: for QTc prolongation (% above vehicle): anesthetized guinea pig, incremental i.v. bolus doses 0.47 to 15 mg/kg; for effect on the QTc interval in the anesthetized guinea pig: cumulative doses up to 30 mg/kg, relative to vehicle controls. As for the experimental part:
as §1

The subject of a further data set is Haemophilus influenzae. Briefly: MIC, NCCLS broth microdilution, respiratory pathogens. Format: cell-based. To be noted: H. influenzae. The procedure:
(§2) Minimum inhibitory concentrations (“MICs”) were determined by the NCCLS broth microdilution procedure for susceptibility testing for bacteria that grow aerobically (National Committee for Clinical Laboratory Standards, 1997. Methods for dilution antimicrobial susceptibility tests for bacteria that grow aerobically, 4th ed. Approved standard. NCCLS Document M7-A4. National Committee for Clinical Laboratory Standards, Villanova, Pa.). Stock solutions were prepared on the day of the test and appropriate aliquots were added to cation adjusted Mueller-Hinton broth (CAMHB, DIFCO) or Haemophilus test media. Two-fold serial dilutions were prepared and added to wells in microtiter plates. Final test concentrations ranged from 8 to 0.004 ug/ml. Broth cultures of bacteria inoculated from growth on overnight plates for all test bacteria except Streptococcus pneumoniae and Haemophilus influenzae were incubated at 35° C. and then adjusted to the Kirby Bauer standard and diluted in CAMHB to achieve a final inoculum concentration of approximately 5×10^5 CFU/ml. Inocula for S. pneumoniae and H. influenzae were prepared by directly suspending colonies from an overnight plate, adjusting the turbidity and diluting as above. S. pneumoniae media was supplemented with 3% lysed horse blood. All plates were incubated in ambient air at 35° C. for 20-24 h for S. pneumoniae and Haemophilus influenzae and 16-20 h for all other bacteria.

The next data set relates to Streptococcus pneumoniae. The description is as above. Format: cell-based. The following applies: S. pneumoniae; for MIC50: read-out: MIC50; for MIC90: read-out: MIC90. The procedure: as §2
The next data set deals with M. catarrhalis. The description is as above. To be noted: Moraxella catarrhalis, M. catarrhalis. Format: cell-based. As for the experimental part:
as §2

A further data set deals with S. pyogenes. The data set is described as above. Format: cell-based. The following applies: Streptococcus pyogenes; for MIC50: read-out: MIC50; for MIC90: read-out: MIC90. The procedure:
as §2

The test system of a further data set is P. granulosum. Briefly: MIC, NCCLS Reference Agar Dilution Method for anaerobic bacteria. Format: cell-based, Propionibacterium granulosum. The procedure: (§3) Minimum inhibitory concentrations (“MICs”) were determined by the NCCLS Reference Agar Dilution Method (M11-A5, Vol. 21, No. 2) for anaerobic bacteria. A panel of 84 antibiotic-susceptible and resistant strains of Propionibacteria from distinct geographic locations were selected. Following revival from frozen stocks, each strain was purity plated onto Wilkins Chalgren Agar, pH 7.2 (Oxoid, UK), and the appropriate antibiotic resistance/susceptibility phenotype was confirmed by antibiotic disc testing. Each strain was subjected to an agar dilution MIC assay. […] The inocula for each batch of strains were prepared from 7-day old Wilkins Chalgren Agar plate cultures by resuspension of colonies in Wilkins Chalgren Anaerobe broth, pH 7.2 (Oxoid, UK) to an optical density (OD600) of 0.2±0.02. The inoculum (1.0-2.0 μL) for each strain was applied to a Wilkins Chalgren Agar MIC plate in a grid pattern using a Multipoint Inoculator (Denley, UK). All agar plates were incubated at 37° C. for 3 days under anaerobic conditions in AnaeroPack 7 liter rectangular jars (Mitsubishi Gas Chemical Company, Inc., Japan).
A general note: In agar dilution the substance is mixed into plates at graded concentrations.

The next data set deals with P. acnes. Described as above. Format: cell-based, Propionibacterium acnes. The procedure:
as §3

[2] abbreviates: marker RNA 2058, phenotype EryR.
The mark [3] stands for this setting: marker RNA 2059, phenotype EryR.
Where [4] appears, read: marker RNA 2057, phenotype EryR.

SMILES strings stand for the structures. Converted amounts (≈) assume the structure as drawn. Read-outs that look alike come from different tables or passages of the source. Some results are limits rather than exact numbers.

On to `CC1CC(N(C)C)C(O)C(O[C@@H]2[C@@H](C)C(=O)[C@@H](C)C(=O)O[C@H](CCF)[C@@]3(C)OC(=O)N[C@@H]3[C@@H](C)C(=O)[C@H](C)C[C@@]2(C)OC/C=C/c2cnc3ccccc3c2)O1` (stereo partly shown) [A], for which, in data set [1], the “Lung AUC” value amounted to 2.3 ug/mL-h, the “Lung Cmax” value was determined as 800 ng/mL, the “Plasma AUC” value is recorded as 0.7 ug/mL-h and the “Plasma Cmax” value worked out at 400 ng/mL. Also, the “QT prolongation (% above vehicle)” value in the data set with anesthetized rats worked out at 8 % above vehicle. Also, in the data set with anesthetized guinea pigs, the “QTc prolongation (% above vehicle)” value was 10 % above vehicle and the “effect on the QTc interval in the anesthetized guinea pig” value (“effect on the QTc interval” below) is recorded as “pronounced, dose-dependent prolongation of the QT interval”.
For the compound `CC1CC(N(C)C)C(O)C(O[C@@H]2[C@@H](C)C(=O)[C@](C)(F)C(=O)O[C@H](CCF)[C@@]3(C)OC(=O)N[C@@H]3[C@@H](C)C(=O)[C@H](C)C[C@@]2(C)OC/C=C/c2cnc3ccccc3c2)O1` (stereo partly shown) [B], in data set [1], the “Lung AUC” value was 19.0 ug/mL-h, the “Lung Cmax” value worked out at 3300 ng/mL, the “Plasma AUC” value came to 3.9 ug/mL-h and the “Plasma Cmax” value was determined as 1000 ng/mL. Besides, in the data set on anesthetized rats, the “QT prolongation (% above vehicle)” value was determined as 10 % above vehicle. In the data set with anesthetized guinea pigs, the “QTc prolongation (% above vehicle)” value is 3 % above vehicle and the “effect on the QTc interval” value is “smaller yet persistent increase in QTc at the highest dose”.
Take `CC1CC(N(C)C)C(O)C(O[C@@H]2[C@@H](C)C(=O)[C@@H](C)C(=O)O[C@H](CCF)[C@@]3(C)OC(=O)N[C@@H]3[C@@H](C)C(=O)[C@H](C)C[C@@]2(C)OC/C=C/c2ccc3ncccc3c2)O1` (stereo partly shown) [C]: the “QT prolongation (% above vehicle)” value in the data set with anesthetized rats stood at 20 % above vehicle. Further, in the data set with anesthetized guinea pigs, the “QTc prolongation (% above vehicle)” value was 12 % above vehicle and the “effect on the QTc interval” value was “pronounced, dose-dependent prolongation of the QT interval”.
Consider `CC1CC(N(C)C)C(O)C(O[C@@H]2[C@@H](C)C(=O)[C@@H](C)C(=O)O[C@H](CCF)[C@@]3(C)OC(=O)N[C@@H]3[C@@H](C)C(=O)[C@H](C)C[C@@]2(C)OC/C=C/c2cnc3cccnc3c2)O1` (stereo partly shown) [D], for which the “QT prolongation (% above vehicle)” value with anesthetized rats worked out at 28 % above vehicle. Also, in the data set on anesthetized guinea pigs, the “QTc prolongation (% above vehicle)” value is recorded as 14 % above vehicle and the “effect on the QTc interval” value is “pronounced, dose-dependent prolongation of the QT interval”.
For the compound `CC1CC(N(C)C)C(O)C(O[C@@H]2[C@@H](C)C(=O)[C@@H](C)C(=O)O[C@H](CCF)[C@@]3(C)OC(=O)N[C@@H]3[C@@H](C)C(=O)[C@H](C)C[C@@]2(C)OC/C=C/c2ccc3nccnc3c2)O1` (stereo partly shown) [G], in [1], the “Lung AUC” value is 2.2 ug/mL-h, the “Lung Cmax” value was 450 ng/mL, the “Plasma AUC” value turned out to be 0.54 ug/mL-h and the “Plasma Cmax” value came out at 210 ng/mL. In addition, the “QT prolongation (% above vehicle)” value in the data set with anesthetized rats is 12 % above vehicle. In the data set on anesthetized guinea pigs, the “QTc prolongation (% above vehicle)” value is on record as 1 % above vehicle and the “effect on the QTc interval” value was “moderate, dose-dependent increase in the QTc interval that slowly returned to baseline”.
Consider `CC[C@H]1OC(=O)[C@H](C)[C@@H](O[C@H]2C[C@@](C)(OC)[C@@H](O)[C@H](C)O2)[C@H](C)[C@@H](O[C@@H]2O[C@H](C)C[C@H](N(C)C)[C@H]2O)[C@](C)(OC)C[C@@H](C)C(=O)[C@H](C)[C@@H](O)[C@]1(C)O` [clarithromycin, reference compound], for which the MIC50 against Haemophilus influenzae (resistant) was more than 8 µg/mL; in the data set on Haemophilus influenzae (sensitive) it was 8 µg/mL (≈ 10.7 µM); in the data set with Streptococcus pneumoniae (20 h, genotype ermB + mef), more than 8 µg/mL; in the data set with Streptococcus pneumoniae (genotype ermB), more than 8 µg/mL; in the data set with Streptococcus pneumoniae (genotype mef), 4 µg/mL (≈ 5.35 µM); in the data set with Streptococcus pneumoniae (genotype sensitive), 0.06 µg/mL (≈ 0.0802 µM). Also, the MIC50 with M. catarrhalis (read-out: MIC50) was 0.12 µg/mL (≈ 0.16 µM); in the data set with S. pyogenes (genotype ermB), more than 8 µg/mL; with S. pyogenes (genotype mef) it was 8 µg/mL (≈ 10.7 µM); with S. pyogenes (genotype sensitive) it was 0.06 µg/mL (≈ 0.0802 µM). Also, the MIC90 is more than 8 µg/mL with Haemophilus influenzae (resistant); 8 µg/mL (≈ 10.7 µM) against Haemophilus influenzae (sensitive); more than 8 µg/mL in the data set with Streptococcus pneumoniae (genotype ermB + mef); more than 8 µg/mL in the data set on Streptococcus pneumoniae (genotype ermB); 8 µg/mL (≈ 10.7 µM) with Streptococcus pneumoniae (genotype mef); 0.06 µg/mL (≈ 0.0802 µM) in the data set with Streptococcus pneumoniae (genotype sensitive). The MIC90 with M. catarrhalis (read-out: MIC90) was 0.12 µg/mL (≈ 0.16 µM); with S. pyogenes (genotype ermB), more than 8 µg/mL; with S. pyogenes (genotype mef), more than 8 µg/mL; with S. pyogenes (genotype sensitive), 0.06 µg/mL (≈ 0.0802 µM).
Consider `CCC[C@@H]1C[C@@H](C(=O)N[C@@H]([C@H]2O[C@H](SC)[C@H](O)[C@@H](O)[C@H]2O)[C@H](C)Cl)N(C)C1` [clindamycin], for which the MIC range is 512 µg/mL (≈ 1200 µM) with P. granulosum (setting [2]); 2 to 512 µg/mL against P. granulosum (setting [3]); 512 µg/mL (≈ 1200 µM) against P. granulosum (marker ermX, phenotype EryR); 0.06 to 0.25 µg/mL in the data set with P. granulosum (marker none, phenotype none); 0.25 to 256 µg/mL in the data set with P. acnes (marker RNA 1058, phenotype TetR); 256 µg/mL (≈ 602 µM) with P. acnes (marker RNA 1058/2058, phenotype TetR, EryR). Further, the MIC range against P. acnes (marker RNA 1058/2059, phenotype TetR, EryR) is 8 to 16 µg/mL; against P. acnes (setting [4]), 1 µg/mL (≈ 2.35 µM); against P. acnes (setting [2]) it was 8 to 256 µg/mL; against P. acnes (marker RNA 2058, phenotype EryR, TetR), 2 to 256 µg/mL; with P. acnes (setting [3]), 8 to 256 µg/mL; against P. acnes (marker RNA 2059, phenotype EryR, TetR) it was 8 to 32 µg/mL. The MIC range in the data set on P. acnes (marker ermX, phenotype EryR) was more than 512 µg/mL; in the data set with P. acnes (marker none, phenotype none), 0.125 to 1 µg/mL; against P. acnes (marker unknown, phenotype ClindR) it was 4 µg/mL (≈ 9.41 µM).
Take `CC[C@H]1OC(=O)[C@H](C)[C@@H](O[C@H]2C[C@@](C)(OC)[C@@H](O)[C@H](C)O2)[C@H](C)[C@@H](O[C@@H]2O[C@H](C)C[C@H](N(C)C)[C@H]2O)[C@](C)(O)C[C@@H](C)C(=O)[C@H](C)[C@@H](O)[C@]1(C)O` [erythromycin]: the MIC range against P. granulosum (marker none, phenotype none) was 0.06 to 8 µg/mL; against P. acnes (setting [4]), 4 µg/mL (≈ 5.45 µM).

The values above are taken from US7595300B2, “7-quinolyl ketolide antibacterial agents” (priority 2005, dated 2009).
